Data on 23 compounds can be found in US11390604B2 (Hoffmann-La Roche Inc., priority 2019, dated 2022).

SMILES strings stand for the structures. Structures can show the parent of a compound that is named as a salt. Where two headings read alike, the source gives them in different places.

In the assay the test system is Acinetobacter baumannii ATCC 17961. The assay is described as follows: Antimicrobial susceptibility testing: 90% growth inhibitory concentration (IC90) determination. Type of assay: cell-based. An outline of the steps: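 Broth microdilution in Iso-Sensitest medium, twofold series (e.g. 50 to 0.097 μM final), ~5×10^5 CFU/ml inoculum, 35±2 °C. OD600 read every 20 min over 16 h. IC90 derived from growth inhibition during logarithmic phase.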

Setting [1] is: ATCC17961, Acinetobacter baumannii ATCC 17961, Iso-Sensitest broth, read-out: ATCC 17961 IC90.

As for `C#CCn1cc(-c2cnc(C(=O)Nc3ccc(C(=O)NC[C@@H]4CCNC4)c(Cl)c3)n2C)c(C(F)(F)F)n1` [Example 31, (R)—N-(3-Chloro-4-((pyrrolidin-3-ylmethyl)carbamoyl)phenyl)-1-methyl-5-(1-(prop-2-yn-1-yl)-3-(trifluoromethyl)-1H-pyrazol-4-yl)-1H-imidazole-2-carboxamide hydrochloride], under setting [1], the 90% effect concentration (IC90) amounted to 962 nM.
Take `C#CCn1cc(-c2cnc(C(=O)Nc3ccc(C(=O)NC[C@H]4CCNC4)c(Cl)c3)n2C)c(C(F)(F)F)n1` [Example 32, (S)-N-(3-chloro-4-((pyrrolidin-3-ylmethyl)carbamoyl)phenyl)-1-methyl-5-(1-(prop-2-yn-1-yl)-3-(trifluoromethyl)-1H-pyrazol-4-yl)-1H-imidazole-2-carboxamide hydrochloride]: under setting [1], the IC90 was 896 nM.
Consider `C#CCn1cc(-c2cnc(C(=O)Nc3ccc(C(=O)NC[C@@H]4CNC[C@@H]4O)c(Cl)c3)n2C)c(C(F)(F)F)n1` [Example 33, N-(3-chloro-4-((((3S,4R)-4-hydroxypyrrolidin-3-yl)methyl)carbamoyl)phenyl)-1-methyl-5-(1-(prop-2-yn-1-yl)-3-(trifluoromethyl)-1H-pyrazol-4-yl)-1H-imidazole-2-carboxamide hydrochloride], for which the IC90 under setting [1] was 925 nM.
As to `C#CCn1cc(-c2cnc(C(=O)Nc3ccc(C(=O)N4CCN(C(=O)OC(C)(C)C)CC4)c(Cl)c3)n2C)c(C(F)(F)F)n1` [Example 34, tert-butyl 4-[2-chloro-4-[[1-methyl-5-[1-prop-2-ynyl-3-(trifluoromethyl)pyrazol-4-yl]imidazole-2-carbonyl]amino]benzoyl]piperazine-1-carboxylate], the 90% effect concentration (IC90) under setting [1] came to 1060 nM.
As to `Cn1c(-c2c[nH]nc2C(F)(F)F)cnc1C(=O)Nc1ccc(C(=O)N2CCNCC2)c(Cl)c1` [Example 35, N-[3-chloro-4-(piperazine-1-carbonyl)phenyl]-1-methyl-5-[3-(trifluoromethyl)-1H-pyrazol-4-yl]imidazole-2-carboxamide hydrochloride], the 90% effect concentration (IC90) (Acinetobacter baumannii, ATCC17961, read-out: ATCC 17961 IC90, Acinetobacter baumannii ATCC 17961, Iso-Sensitest broth) was 3700 nM.
On to `C#CCn1cc(-c2cnc(C(=O)Nc3ccc(C(=O)N4CCN(C(=O)[C@@H]5C[C@@H](O)CN5)CC4)c(Cl)c3)n2C)c(C(F)(F)F)n1` [Example 36, N-[3-Chloro-4-[4-[(2S,4R)-4-hydroxypyrrolidine-2-carbonyl]piperazine-1-carbonyl]phenyl]-1-methyl-5-[1-prop-2-ynyl-3-(trifluoromethyl)pyrazol-4-yl]imidazole-2-carboxamide hydrochloride], for which the IC90 under setting [1] came to 286 nM.
Still for that read-out and setting: the figure for `C#CCn1cc(-c2cnc(C(=O)Nc3ccc(C(=O)N4CCN(C(=O)[C@H]5CCNC5)CC4)c(Cl)c3)n2C)c(C(F)(F)F)n1` [Example 37, N-[3-chloro-4-[4-[(3S)-pyrrolidine-3-carbonyl]piperazine-1-carbonyl]phenyl]-1-methyl-5-[1-prop-2-ynyl-3-(trifluoromethyl)pyrazol-4-yl]imidazole-2-carboxamide hydrochloride] is 233 nM; for `C#CCn1cc(-c2cnc(C(=O)Nc3ccc(C(=O)N4CCN(C(=O)[C@H]5CCCN5)CC4)c(Cl)c3)n2C)c(C(F)(F)F)n1` [Example 38, N-[3-chloro-4-[4-[(2R)-pyrrolidine-2-carbonyl]piperazine-1-carbonyl]phenyl]-1-methyl-5-[1-prop-2-ynyl-3-(trifluoromethyl)pyrazol-4-yl]imidazole-2-carboxamide hydrochloride] it is 275 nM.
`C#CCn1cc(-c2cnc(C(=O)Nc3ccc(C(=O)N4CCN(C(=O)C5(O)CCNCC5)CC4)c(Cl)c3)n2C)c(C(F)(F)F)n1` [Example 39, N-[3-chloro-4-[4-(4-hydroxypiperidine-4-carbonyl)piperazine-1-carbonyl]phenyl]-1-methyl-5-[1-prop-2-ynyl-3-(trifluoromethyl)pyrazol-4-yl]imidazole-2-carboxamide hydrochloride]: the 90% effect concentration (IC90) under setting [1] was determined as 257 nM.
The same measure, in the same setting: the figure for `C#CCn1cc(-c2cnc(C(=O)Nc3ccc(C(=O)N4CCN(C(=O)[C@H]5CCNC[C@H]5O)CC4)c(Cl)c3)n2C)c(C(F)(F)F)n1` [Example 40, N-(3-chloro-4-(4-((3S,4S)-3-hydroxypiperidine-4-carbonyl)piperazine-1-carbonyl)phenyl)-1-methyl-5-(1-(prop-2-yn-1-yl)-3-(trifluoromethyl)-1H-pyrazol-4-yl)-1H-imidazole-2-carboxamide hydrochloride] is 241 nM.
Same read-out and setting: the figure for `C#CCn1cc(-c2cnc(C(=O)Nc3ccc(C(N)=O)c(Cl)c3)n2C)c(C(F)(F)F)n1` [Example 41, N-(4-Carbamoyl-3-chlorophenyl)-1-methyl-5-(1-(prop-2-yn-1-yl)-3-(trifluoromethyl)-11-pyrazol-4-yl)-1H-imidazole-2-carboxamide] is 801 nM; for `C#CCn1cc(-c2cnc(C(=O)Nc3ccc(C(=O)N(C)C)c(Cl)c3)n2C)c(C(F)(F)F)n1` [Example 42, N-(3-chloro-4-(dimethylcarbamoyl)phenyl)-1-methyl-5-(1-(prop-2-yn-1-yl)-3-(trifluoromethyl)-1H-pyrazol-4-yl)-1H-imidazole-2-carboxamide] it is 241 nM.
Same read-out and setting: then `C#CCn1cc(-c2cnc(C(=O)Nc3ccc(C(=O)NC)c(Cl)c3)n2C)c(C(F)(F)F)n1` [Example 43, N-(3-chloro-4-(methylcarbamoyl)phenyl)-1-methyl-5-(1-(prop-2-yn-1-yl)-3-(trifluoromethyl)-1H-pyrazol-4-yl)-1H-imidazole-2-carboxamide], with 478 nM; and `C#CCn1cc(-c2cnc(C(=O)Nc3ccc(C(=O)NCCCN)c(Cl)c3)n2C)c(C(F)(F)F)n1` [Example 44, N-(4-((3-aminopropyl)carbamoyl)-3-chlorophenyl)-1-methyl-5-(1-(prop-2-yn-1-yl)-3-(trifluoromethyl)-1H-pyrazol-4-yl)-1H-imidazole-2-carboxamide 2,2,2-trifluoroacetate], with 556 nM; and `C#CCn1cc(-c2cnc(C(=O)Nc3ccc(C(=O)NCCOC[C@@H](C)N)c(Cl)c3)n2C)c(C(F)(F)F)n1` [Example 45, (R)-N-(4-((2-(2-aminopropoxy)ethyl)carbamoyl)-3-chlorophenyl)-1-methyl-5-(1-(prop-2-yn-1-yl)-3-(trifluoromethyl)-1H-pyrazol-4-yl)-1H-imidazole-2-carboxamide 2,2,2-trifluoroacetate], with 262 nM.
`C#CCn1cc(-c2cnc(C(=O)Nc3ccc(C(=O)NCCOCC(C)(C)N)c(Cl)c3)n2C)c(C(F)(F)F)n1` [Example 46, N-(4-((2-(2-amino-2-methylpropoxy)ethyl)carbamoyl)-3-chlorophenyl)-1-methyl-5-(1-(prop-2-yn-1-yl)-3-(trifluoromethyl)-1H-pyrazol-4-yl)-1H-imidazole-2-carboxamide 2,2,2-trifluoroacetate]: the 90% effect concentration (IC90) under setting [1] was determined as 263 nM.
On the same count and under the same terms, then `C#CCn1cc(-c2cnc(C(=O)Nc3ccc(C(=O)NCCOC[C@H](C)N)c(Cl)c3)n2C)c(C(F)(F)F)n1` [Example 47, (S)-N-(4-((2-(2-aminopropoxy)ethyl)carbamoyl)-3-chlorophenyl)-1-methyl-5-(1-(prop-2-yn-1-yl)-3-(trifluoromethyl)-1H-pyrazol-4-yl)-1H-imidazole-2-carboxamide 2,2,2-trifluoroacetate], with 428 nM; and `C#CCn1cc(-c2cnc(C(=O)Nc3ccc(C(=O)NCCOCCN)c(Cl)c3)n2C)c(C(F)(F)F)n1` [Example 48, N-(4-((2-(2-aminoethoxy)ethyl)carbamoyl)-3-chlorophenyl)-1-methyl-5-(1-(prop-2-yn-1-yl)-3-(trifluoromethyl)-1H-pyrazol-4-yl)-1H-imidazole-2-carboxamide trifluoroacetate], with 231 nM.
With `Cc1cc(NC(=O)c2ncc(-c3c[nH]nc3C(F)(F)F)n2C)ccc1C(=O)NCCCCCCN` [Example 49, N-(4-((6-aminohexyl)carbamoyl)-3-methylphenyl)-1-methyl-5-(3-(trifluoromethyl)-1H-pyrazol-4-yl)-1H-imidazole-2-carboxamide hydrochloride], the concentration for an effect of 90% (IC90) under setting [1] stood at 2830 nM.
The same measure, in the same setting: then `Cc1cc(NC(=O)c2ncc(-c3c[nH]nc3C(F)(F)F)n2C)ccc1C(=O)NCCCCCN` [Example 50, N-(4-((5-aminopentyl)carbamoyl)-3-methylphenyl)-1-methyl-5-(3-(trifluoromethyl)-1H-pyrazol-4-yl)-1H-imidazole-2-carboxamide hydrochloride], with 4680 nM; and `C#CCn1cc(-c2cnc(C(=O)Nc3ccc(C(=O)N4CCN(C(=O)NC5CNC5)CC4)c(Cl)c3)n2C)c(C(F)(F)F)n1` [Example 51, N-(Azetidin-3-yl)-4-(2-chloro-4-(1-methyl-5-(1-(prop-2-yn-1-yl)-3-(trifluoromethyl)-1H-pyrazol-4-yl)-1H-imidazole-2-carboxamido)benzoyl)piperazine-1-carboxamide Hydrochloride], with 122 nM.
Still for that read-out and setting: the figure for `C#CCn1cc(-c2cnc(C(=O)Nc3ccc(C(=O)N4CCN(C(=O)NCC5(O)CNC5)CC4)c(Cl)c3)n2C)c(C(F)(F)F)n1` [Example 52, 4-(2-chloro-4-(1-methyl-5-(1-(prop-2-yn-1-yl)-3-(trifluoromethyl)-1H-pyrazol-4-yl)-1H-imidazole-2-carboxamido)benzoyl)-N-((3-hydroxyazetidin-3-yl)methyl)piperazine-1-carboxamide hydrochloride] is 192 nM; for `C#CCn1cc(-c2cnc(C(=O)Nc3ccc(C(=O)N4CCN(C(=O)N[C@H]5CCNC5)CC4)c(Cl)c3)n2C)c(C(F)(F)F)n1` [Example 53, (S)-4-(2-chloro-4-(1-methyl-5-[1-(prop-2-yn-1-yl)-3-(trifluoromethyl)-1H-pyrazol-4-yl)-1H-imidazole-2-carboxamido)benzoyl)-N-(pyrrolidin-3-yl)piperazine-1-carboxamide hydrochloride] it is 161 nM.
